Measurements published in PubChem BioAssay (NCI).
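Tested at 5 concentrations; 48 h exposure; 96-well plates; endpoints linearly interpolated, else capped at highest concentration. GI50: concentration for 50% inhibition of growth. The concentration for full growth arrest is given as TGI.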

Columns and labels:
Assay in all cases: growth of human tumour cells (NCI), 48 h
[1] = test system: SW-620 colon
[2] = test system: MDA-MB-231 breast
[3] = test system: MALME-3M melanoma
[4] = test system: PC-3 prostate
[5] = test system: UACC-62 melanoma
[6] = test system: HOP-62 NSCLC
[7] = test system: NCI-H522 lung
[8] = test system: M14 melanoma
[9] = test system: TK-10 renal
[10] = test system: NCI/ADR-RES ovarian
[11] = test system: DU-145 prostate
[12] = test system: OVCAR-5 ovarian
[13] = test system: HT29 colon
[14] = test system: SK-MEL-2 melanoma
[15] = test system: KM12 colon
[16] = test system: SF-295 CNS
[17] = test system: SN12C renal
[18] = test system: OVCAR-3 ovarian
[19] = test system: SK-MEL-28 melanoma
[20] = test system: 786-0 renal
[21] = test system: COLO 205 colon
[22] = test system: HCC-2998 colon
[23] = test system: ACHN renal
[24] = test system: HOP-92 NSCLC
[25] = test system: A498 renal
[26] = test system: HL-60(TB) leukemia
[27] = test system: SF-539 CNS
[28] = test system: NCI-H460 lung
[29] = test system: SR leukemia
[30] = test system: CAKI-1 renal
[31] = test system: LOX IMVI melanoma
[32] = test system: BT-549 breast
[33] = test system: T-47D breast
[34] = test system: HS 578T breast
[35] = test system: SNB-75 CNS
[36] = test system: MDA-MB-435
[37] = test system: MOLT-4 leukemia
[38] = test system: SF-268 CNS
[39] = test system: UO-31 renal
[40] = test system: EKVX NSCLC
[41] = test system: SK-OV-3 ovarian
[42] = test system: A549 NSCLC
[43] = test system: SK-MEL-5 melanoma
[44] = test system: RPMI-8226 leukemia
[45] = test system: OVCAR-8 ovarian
[46] = test system: HCT-116 colon
[47] = test system: RXF 393 renal
[48] = test system: NCI-H226 lung
[49] = test system: NCI-H23 lung
[50] = test system: SNB-19 CNS
[51] = test system: U251 CNS
[52] = test system: OVCAR-4 ovarian
[53] = test system: MCF7 breast
[54] = test system: HCT-15 colon

## CC(c1cc(Cl)ccc1O)c1cc(Cl)ccc1O
[1]
  GI50: 3.7 µM
  TGI: 13.3 µM
[2]
  GI50: 3.88 µM
  TGI: 16.2 µM
[3]
  GI50: 4.61 µM
  TGI: 22.7 µM
[4]
  GI50: 3.73 µM
  TGI: 15 µM
[5]
  GI50: 3.58 µM
  TGI: 15 µM
[6]
  GI50: 3.76 µM
  TGI: 17.5 µM
[7]
  GI50: 2.24 µM
  TGI: 5.24 µM
[8]
  GI50: 2.97 µM
  TGI: 9.82 µM
[9]
  GI50: 11.8 µM
  TGI: 24.7 µM
[10]
  GI50: 3.15 µM
  TGI: 9.16 µM
[11]
  GI50: 5.2 µM
  TGI: 16.3 µM
[12]
  GI50: 11.1 µM
  TGI: 26.7 µM
[13]
  GI50: 2.74 µM
  TGI: 9.13 µM
[14]
  GI50: 2.98 µM
  TGI: 7.23 µM
[15]
  GI50: 3.22 µM
  TGI: 10.2 µM
[16]
  GI50: 2.3 µM
  TGI: 7.83 µM
[17]
  GI50: 3.66 µM
  TGI: 16.1 µM
[18]
  GI50: 3.62 µM
  TGI: 13 µM
[19]
  GI50: 4.13 µM
  TGI: 17 µM
[20]
  GI50: 15.7 µM
  TGI: 36.1 µM
[21]
  GI50: 17.6 µM
  TGI: 33.5 µM
[22]
  GI50: 3.84 µM
  TGI: 12.8 µM
[23]
  GI50: 3.99 µM
  TGI: 14.1 µM
[24]
  GI50: 1.71 µM
  TGI: 5.35 µM
[25]
  GI50: 8.4 µM
  TGI: 20.8 µM
[26]
  GI50: 2.55 µM
  TGI: 5.75 µM
[27]
  GI50: 3.52 µM
  TGI: 12.9 µM
[28]
  GI50: 2.26 µM
  TGI: 4.88 µM
[29]
  GI50: 2.59 µM
  TGI: 9.95 µM
[30]
  GI50: 2.61 µM
  TGI: 16.4 µM
[31]
  GI50: 3.97 µM
  TGI: 17.1 µM
[32]
  GI50: 4.58 µM
  TGI: 16.9 µM
[33]
  GI50: 3.85 µM
  TGI: 18.7 µM
[34]
  GI50: 2.74 µM
  TGI: 7.19 µM
[35]
  GI50: 2.49 µM
  TGI: 11.9 µM
[36]
  GI50: 2.32 µM
  TGI: 7.25 µM
[37]
  GI50: 3.3 µM
  TGI: 10.3 µM
[38]
  GI50: 4.33 µM
  TGI: 16.9 µM
[39]
  GI50: 2.3 µM
  TGI: 10.8 µM
[40]
  GI50: 2.98 µM
  TGI: 13.4 µM
[41]
  GI50: 13.4 µM
  TGI: 26.4 µM
[42]
  GI50: 4.15 µM
  TGI: 18.9 µM
[43]
  GI50: 3.41 µM
  TGI: 10 µM
[44]
  GI50: 3.73 µM
  TGI: 9.89 µM
[45]
  GI50: 4.04 µM
  TGI: 19.9 µM
[46]
  GI50: 3.38 µM
  TGI: 10.3 µM
[47]
  GI50: 3.42 µM
  TGI: 9.7 µM
[48]
  GI50: 12 µM
  TGI: 43.5 µM
[49]
  GI50: 2.83 µM
  TGI: 8.32 µM
[50]
  GI50: 8.13 µM
  TGI: 22.4 µM
[51]
  GI50: 3.93 µM
  TGI: 14.5 µM
[52]
  GI50: 5.24 µM
  TGI: 22.8 µM
[53]
  GI50: 3.19 µM
  TGI: 16.5 µM
[54]
  GI50: 4.54 µM
  TGI: 16.6 µM
